Laboratory results as given in patent US7371741B2, “Estradiol derivatives and pharmaceutical compositions using same” (EntreMed, Inc., priority 2003, dated 2008).

Columns and labels:
PC3: prostate cancer = test: In vitro anti-proliferative activity, BrdU incorporation, PC3; type: cell-based; settings: PC3 cells, 50% inhibition of proliferation, BrdU incorporation into DNA
Method: (§1) Determination of in vitro anti-proliferative activity of substituted estradiol analogs: In vitro anti-proliferative or anti-mitogenic activity was determined using a commercially available cell-based assay in 96-well tissue culture plates with assessment of proliferation by evaluating DNA synthesis through incorporation into DNA of immuno-reactive (BrdU) nucleotides. The cell types used are commercially available (MDA-MB-231: breast cancer; U87-MG: glioblastoma; PC3: prostate cancer; HUVEC: non-transformed early passage human umbilical vein endothelial cells). These assays, and the many assay variations possible to determine in vitro anti-proliferative or anti-mitogenic activity, are well known to those skilled in the art. The concentration which causes 50% inhibition of proliferation (IC50) was estimated from a dose-response curve generally carried out with a range of concentrations from ≧100 microg/mL to ≦0.01 microg/mL.

[1] = test system: HUVEC: non-transformed early passage human umbilical vein endothelial cells; test: In vitro anti-proliferative activity, BrdU incorporation, HUVEC; type: cell-based; settings: 50% inhibition of proliferation, BrdU incorporation into DNA
Method: as §1

[2] = test system: chick embryo chorioallantoic membrane; test: Chick embryo chorioallantoic membrane (CAM) assay; type: in vivo; settings: 100 μg methylcellulose disk, after 48 hours
Excerpt: Anti-proliferative activity can be evaluated in situ by testing the ability of an improved estradiol derivative to inhibit the proliferation of new blood vessel cells (angiogenesis). A suitable assay is the chick embryo chorioallantoic membrane (CAM) assay described by Crum et al. Science 230:1375 (1985). See also, U.S. Pat. No. 5,001,116, hereby incorporated by reference, which describes the CAM assay. Briefly, fertilized chick embryos are removed from their shell on day 3 or 4, and a methylcellulose disc containing the drug is implanted on the chorioallantoic membrane. The embryos are examined 48 hours later and, if a clear avascular zone appears around the methylcellulose disc, the diameter of that zone is measured.

[3] = test system: MDA-MB-231: breast cancer; test: In vitro anti-proliferative activity, BrdU incorporation, MDA-MB-231; type: cell-based; settings: MDA-MB-231 cells, 50% inhibition of proliferation, BrdU incorporation into DNA
Method: as §1

U87-MG: glioblastoma = test: In vitro anti-proliferative activity, BrdU incorporation, U87-MG; type: cell-based; settings: U87-MG cells, 50% inhibition of proliferation, BrdU incorporation into DNA
Method: as §1

Row | SMILES | IC50 (PC3: prostate cancer; Homo sapiens, PC-3) [nM] | IC50 ([1]; Homo sapiens) [nM] | inhibition of cell mitosis and growth of new blood vessels (CAM) [2] | IC50 ([3]; Homo sapiens) [nM] | IC50 (U87-MG: glioblastoma; Homo sapiens, U-87 MG) [nM] | IC50 (PC3: prostate cancer) [nM] | IC50 [1] [nM] | IC50 (U87-MG: glioblastoma) [nM] | IC50 [3] [nM]
1 | COc1cc2c(cc1O)CC[C@@H]1[C@@H]2CC[C@]2(C)[C@@H](O)CC[C@@H]12 [Compound 1, 2-methoxyestradiol, reference compound] | 1080 ± 500 | 680 ± 150 | inhibit cell mitosis and the growth of new blood vessels | 690 ± 140 | – | – | – | – | –
2 | C=C1CC[C@H]2[C@@H]3CCc4cc(N)c(OC)cc4[C@H]3CC[C@]12C [Compound 85, 3-amino-17-methylene-2-methoxyestra-1,3,5(10)-triene] | 2400 ± 390 | 1000 ± 190 | – | 2110 ± 570 | 5510 ± 460 | – | – | – | –
3 | C=C1CC[C@H]2[C@@H]3CCc4cc(N)c(OCC)cc4[C@H]3CC[C@]12C [Compound 86, 3-amino-17-methylene-2-ethoxyestra-1,3,5(10)-triene] | 2750 ± 220 | 2310 ± 50 | – | 2130 ± 120 | 7290 ± 2260 | – | – | – | –
4 | C=C1CC[C@H]2[C@@H]3CCc4cc(NC=O)c(OC)cc4[C@H]3CC[C@]12C [Compound 88, 3-formamide-17-methylene-2-methoxyestra-1,3,5(10)-triene] | – | – | – | – | – | 240 ± 60 | 220 ± 30 | 530 ± 240 | 300 ± 80
5 | C=C1CC[C@H]2[C@@H]3CCc4cc(NC=O)c(OCC)cc4[C@H]3CC[C@]12C [Compound 89, 3-formamide-17-methylene-2-ethoxyestra-1,3,5(10)-triene] | – | – | – | – | – | 1590 ± 190 | 2100 ± 20 | 7730 | 2410 ± 130
6 | CC=C1CC[C@H]2[C@@H]3CCc4cc(OS(N)(=O)=O)c(OC)cc4[C@H]3CC[C@]12C [Compound 94, 3-sulfamate-17-ethylene-2-methoxyestra-1,3,5(10)-triene] | – | – | – | – | – | 660 ± 50 | 590 | 640 ± 90 | 580 ± 20
7 | CC=C1CC[C@H]2[C@@H]3CCc4cc(N)c(OC)cc4[C@H]3CC[C@]12C [Compound 109, 3-amino-17-ethylene-2-methoxyestra-1,3,5(10)-triene] | – | – | – | – | – | 920 ± 110 | 720 ± 100 | 2350 ± 410 | 1940 ± 270
8 | CC=C1CC[C@H]2[C@@H]3CCc4cc(NC=O)c(OC)cc4[C@H]3CC[C@]12C [Compound 112, 3-formamide-17-ethylene-2-methoxyestra-1,3,5(10)-triene] | – | – | – | – | – | 740 ± 10 | 580 | 770 ± 60 | 560 ± 20
9 | COc1cc2c(cc1OS(N)(=O)=O)CC[C@@H]1[C@@H]2CC[C@]2(C)C(C)CC[C@@H]12 (stereo partly drawn) [Compound 118, 3-sulfamate-17-methyl-2-methoxyestra-1,3,5(10)-triene] | – | – | – | – | – | 820 ± 60 | 590 ± 100 | 640 ± 10 | 660 ± 100
10 | CCOc1cc2c(cc1OS(N)(=O)=O)CC[C@@H]1[C@@H]2CC[C@]2(C)C(C)CC[C@@H]12 (stereo partly drawn) [Compound 119, 3-sulfamate-17-methyl-2-ethoxyestra-1,3,5(10)-triene] | – | – | – | – | – | 830 | 910 ± 90 | 6410 | 1550 ± 390
11 | COc1cc2c(cc1N)CC[C@@H]1[C@@H]2CC[C@]2(C)C(C)CC[C@@H]12 (stereo partly drawn) [Compound 133, 3-amino-17-methyl-2-methoxyestra-1,3,5(10)-triene] | 7160 ± 1420 | 2650 ± 770 | – | 7310 ± 580 | 14870 ± 10 | – | – | – | –
12 | COc1cc2c(cc1NC=O)CC[C@@H]1[C@@H]2CC[C@]2(C)C(C)CC[C@@H]12 (stereo partly drawn) [Compound 136, 3-formamide-17-methyl-2-methoxyestra-1,3,5(10)-triene] | – | – | – | – | – | 700 ± 100 | 590 | 640 ± 10 | 610
